# Test: Study on the stability of caspofungin with low solvent residue and hyposaline (storage, then HPLC purity)
# Type: physicochemical
# Conditions: for Purity: HPLC purity after storing at −25~−20° C. for 30 days; for Initial purity: HPLC purity before storage; for stability of the samples (degradation by HPLC analysis): stored at −25-20° C. for 30 days
# Protocol: In the present invention, HPLC is used to determine the purity of caspofungin or salts thereof (the compound of formula 1 or salts thereof), and to investigate the stability of sample. Said HPLC is described as follows:
# Chromatographic column: 4.6×250 mm, 5 μm C18 column;
# Mobile phase: A: 0.1% aqueous perchloric acid and 0.075% aqueous sodium chloride; B: acetonitrile;
# Flow rate: 1.0 ml/min; Injection volume: 10 μL;
# Column temperature: 35° C.±5° C.; Detection wavelength: 220 nm; Running time: 60 mins;
# Retention time of major peak: about 27 min;
# The samples prepared in the above example 3, example 4, example 5, example 6, example 7, example 8 and example 9 were stored at −25-20° C. for 30 days. And then HPLC analysis was applied on these samples.
Purity,Initial purity,stability of the samples (degradation by HPLC analysis),Compound
99.90%,99.90%,no degradation occured,"CCC(C)CC(C)CCCCCCCCC(=O)N[C@H]1C[C@@H](O)[C@@H](NCCN)NC(=O)[C@@H]2[C@@H](O)CCN2C(=O)[C@H]([C@H](O)CCN)NC(=O)[C@H]([C@H](O)[C@@H](O)c2ccc(O)cc2)NC(=O)[C@@H]2C[C@@H](O)CN2C(=O)[C@H]([C@@H](C)O)NC1=O (single isomer, unassigned) [Example 3, caspofungin diacetate]"
99.90%,99.90%,no degradation occured,"CCC(C)CC(C)CCCCCCCCC(=O)N[C@H]1C[C@@H](O)[C@@H](NCCN)NC(=O)[C@@H]2[C@@H](O)CCN2C(=O)[C@H]([C@H](O)CCN)NC(=O)[C@H]([C@H](O)[C@@H](O)c2ccc(O)cc2)NC(=O)[C@@H]2C[C@@H](O)CN2C(=O)[C@H]([C@@H](C)O)NC1=O (single isomer, unassigned) [Example 4, caspofungin diacetate]"
99.91%,99.91%,no degradation occured,"CCC(C)CC(C)CCCCCCCCC(=O)N[C@H]1C[C@@H](O)[C@@H](NCCN)NC(=O)[C@@H]2[C@@H](O)CCN2C(=O)[C@H]([C@H](O)CCN)NC(=O)[C@H]([C@H](O)[C@@H](O)c2ccc(O)cc2)NC(=O)[C@@H]2C[C@@H](O)CN2C(=O)[C@H]([C@@H](C)O)NC1=O (single isomer, unassigned) [Example 5, caspofungin diacetate]"
99.92%,99.92%,no degradation occured,"CCC(C)CC(C)CCCCCCCCC(=O)N[C@H]1C[C@@H](O)[C@@H](NCCN)NC(=O)[C@@H]2[C@@H](O)CCN2C(=O)[C@H]([C@H](O)CCN)NC(=O)[C@H]([C@H](O)[C@@H](O)c2ccc(O)cc2)NC(=O)[C@@H]2C[C@@H](O)CN2C(=O)[C@H]([C@@H](C)O)NC1=O (single isomer, unassigned) [Example 6, caspofungin diacetate]"
99.90%,99.90%,no degradation occured,"CCC(C)CC(C)CCCCCCCCC(=O)N[C@H]1C[C@@H](O)[C@@H](NCCN)NC(=O)[C@@H]2[C@@H](O)CCN2C(=O)[C@H]([C@H](O)CCN)NC(=O)[C@H]([C@H](O)[C@@H](O)c2ccc(O)cc2)NC(=O)[C@@H]2C[C@@H](O)CN2C(=O)[C@H]([C@@H](C)O)NC1=O (single isomer, unassigned) [Example 7, caspofungin diacetate]"
99.88%,99.88%,no degradation occured,"CCC(C)CC(C)CCCCCCCCC(=O)N[C@H]1C[C@@H](O)[C@@H](NCCN)NC(=O)[C@@H]2[C@@H](O)CCN2C(=O)[C@H]([C@H](O)CCN)NC(=O)[C@H]([C@H](O)[C@@H](O)c2ccc(O)cc2)NC(=O)[C@@H]2C[C@@H](O)CN2C(=O)[C@H]([C@@H](C)O)NC1=O (single isomer, unassigned) [Example 8, caspofungin diacetate]"
99.86%,99.86%,no degradation occured,"CCC(C)CC(C)CCCCCCCCC(=O)N[C@H]1C[C@@H](O)[C@@H](NCCN)NC(=O)[C@@H]2[C@@H](O)CCN2C(=O)[C@H]([C@H](O)CCN)NC(=O)[C@H]([C@H](O)[C@@H](O)c2ccc(O)cc2)NC(=O)[C@@H]2C[C@@H](O)CN2C(=O)[C@H]([C@@H](C)O)NC1=O (single isomer, unassigned) [Example 9, caspofungin diacetate]"

# Reference: US9446091B2, “Caspofungin or salts thereof with high purity, as well as preparation method and use thereof” (Shanghai Techwell Biopharmaceutical Co., Ltd., priority 2011, dated 2016)
